Data taken from patent US10457666B2, “Stable crystal form of tipiracil hydrochloride and crystallization method for the same” (TAIHO PHARMACEUTICAL CO., LTD., priority 2013, dated 2019).
Several values for one entry are separate records, joined by “and”; a condition that tells them apart may be missing. Equal values may be shown once.

What was measured:
[1] = Stability test (storage stability after preservation); format: physicochemical; conditions: preservation at 40° C. for six months; for change in powder X-ray diffraction pattern after preservation (storage stability): hydrochloride
Description: Crystal I, Crystal III, and Crystal II of tipiracil hydrochloride obtained in accordance with Example 1, Example 2, and Reference Example 1 respectively were tested for storage stability after preservation at a temperature of 40° C. for six months.

[2] = Test for measurement of electric charge amount by air transfer; format: physicochemical; conditions: for Amount of electric charge per unit mass, average value: average of 3 measurements; for Amount of electric charge per unit mass, average value / Amount of electric charge / Amount of electric charge per unit mass: air transfer 130 L/min, SUS electrifying tube, hydrochloride; for Amount of electric charge / Amount of electric charge per unit mass: individual measurements No. 1-3; for polarity of charge: relative to SUS membrane
Description: Electric charge amounts of Crystal I and Crystal III obtained in accordance with Example 1 and Example 2 respectively were measured by air transfer. Crystal I or Crystal III was put in a powder supply part of an electrifying tube (made of SUS, 24.6×500 mm), and was left for 10 minutes. The sample was transferred by air at a flow rate of 130 L/min and the electric charge amount was calculated from the current value at that time obtained from the electrifying tube. ? =−∫0^tIdt Q: Amount of electric charge [C] I: Current generated during measurement [A] t: Measuring time […]
The measurement was performed 5 times, of which 3 times that gave stable results were adopted. The average of the values of the 3 times was regarded as the measured value.

Cl.N=C1CCCN1Cc1[nH]c(=O)[nH]c(=O)c1Cl [Crystal II, 5-chloro-6-(2-iminopyrrolidin-1-yl)methyl-2,4(1H,3H)-pyrimidinedione hydrochloride]
change in powder X-ray diffraction pattern after preservation (storage stability) [1]: not the same

Cl.N=C1CCCN1Cc1[nH]c(=O)[nH]c(=O)c1Cl [Crystal I, 5-chloro-6-(2-iminopyrrolidin-1-yl)methyl-2,4(1H,3H)-pyrimidinedione hydrochloride]
amounts of analogous substances after preservation [1]: small and not increased | change in powder X-ray diffraction pattern after preservation (storage stability) [1]: no change | Amount of electric charge per unit mass, average value [2]: 1.0 × 10^−7 C/g | Amount of electric charge [2]: 5.3 × 10^−8 C and 5.0 × 10^−8 C | Amount of electric charge per unit mass [2]: 1.1 × 10^−7 C/g and 9.7 × 10^−8 C/g and 9.8 × 10^−8 C/g | polarity of charge [2]: (positively-charged

Cl.N=C1CCCN1Cc1[nH]c(=O)[nH]c(=O)c1Cl [Crystal III, 5-chloro-6-(2-iminopyrrolidin-1-yl)methyl-2,4(1H,3H)-pyrimidinedione hydrochloride]
amounts of analogous substances after preservation [1]: small and not increased | change in powder X-ray diffraction pattern after preservation (storage stability) [1]: no change | Amount of electric charge per unit mass, average value [2]: 3.5 × 10^−7 C/g | charge relative to Crystal I ([2]; comparison of Table 2 and Table 3): three times as much charge as Crystal I | Amount of electric charge [2]: 2.0 × 10^−7 C and 2.1 × 10^−7 C and 1.8 × 10^−7 C | Amount of electric charge per unit mass [2]: 3.2 × 10^−7 C/g (2×) and 4.2 × 10^−7 C/g | polarity of charge [2]: (positively-charged
